Source: publication PMC5979480 (International Journal of Molecular Sciences, 2018)

Experiments:
[1] = in vivo; cited from earlier work
[2] = system: 6-OHDA hemi-parkinsonian (PD) rats; test: Apomorphine-induced contralateral rotation; assay type: in vivo, Sprague-Dawley rats
Method: (§1) Modified surgical procedures were based on our previously described methods. Under Zoletil-Rumpun (10 mg/kg: 2 mg/kg, i.p.) anesthesia, SD rats were placed in a stereotaxic frame with the nose bar positioned 3.3 mm below the interaural line. Unilateral 6-hydroxydopamine (6-OHDA, 8 μg dissolved in 0.9% saline with 0.02% ascorbic acid) was injected for DA lesions into the left median forebrain bundle (MFB, coordinates: anteroposterior [49, 53], −4.3 mm; lateral (L), 1.6 mm from bregma; ventral (V), 8.2 mm from the dura).
Apomorphine (0.5 mg/kg in 0.1% ascorbic acid, s.c.)-induced contralateral rotations were recorded using a digital video camera to count the number of rotations for 60 min at weekly intervals up to 4 weeks post-lesion (i.e., 7, 14, 21, and 28 days post-lesion) using the same test conditions. The net number of rotations was calculated (contralateral minus ipsilateral full turns). In unilaterally 6-OHDA lesioned animals, apomorphine-induced contralateral rotation is a well-established correlate of dopamine depletion, with rotation levels seen here indicative of an 80–90% loss.

TBI injury in rats = settings: 38.5 µg/kg/day GIP (equivalent to 7.8 nmol/kg/day); cited from earlier work
[3] = system: 6-OHDA hemi-parkinsonian (PD) rats; test: Open-field test (locomotor and anxiety-like behavior); assay type: in vivo, Sprague-Dawley rats; settings: 15 nmol/kg/day s.c. pump
Method: as §1
In addition to its well-known motor manifestations, PD is also known to elicit neuropsychiatric disorders such as anxiety. We thus used open field measurements in the lesioned animals, as well as in intact animals, to evaluate not only general motor activity but also anxiety-related exploratory activity. Rats were first habituated to an open field Plexiglas arena (60 × 60 × 100 cm) for 10 min at day 4 and 5 post-lesion. At day 6 post-lesion, locomotor activity and anxiety-like behavior were monitored for 10 min using open field tests. The rat behaviors were recorded using an EthoVision system. Total distance, velocity, and freezing times in the open-field were considered general locomotor activities. The number and retention times in the central zone of the open field were measured as anxiety-like behaviors. The center of the open field was defined as a 30 × 30 cm^2 in the geometric center of the arena.

Row | Compound | Share of plasma levels reaching the brain [1] [%] | Sensitization (progressive increase in apomorphine-induced rotations with repeated weekly tests) ([2]; 15 nmol/kg/day GIP, weekly tests up to 4 weeks post-lesion, time effect GIP p = 0.940) | Apomorphine-induced rotation, GIP vs saline ([2]; 15 nmol/kg/day s.c. pump for 2 weeks from 2 days pre-lesion, apomorphine 0.5 mg/kg s.c., 60 min, week 3 (p = 0.042) and week 4 (p = 0.019) post-6-OHDA, saline n = 9, GIP n = 10) | Initial levels of apomorphine-induced rotations ([2]; apomorphine 0.5 mg/kg, both lesioned groups (saline and GIP 15 nmol/kg/day)) | Effect on TBI injury (TBI injury in rats) | Open-field locomotor behavior (total distance moved, velocity, freezing time) ([3]; 10 min open field post-lesion, GIP vs saline p = 0.031, 0.021, 0.034, saline n = 8, GIP15 n = 5, naïve n = 6) | Number of entries into the central zone, GIP vs saline ([3]; 10 min open field, p = 0.008) | Retention times in the central zone, GIP vs saline ([3]; 10 min open field, p = 0.218)
1 | Exenatide | ~2 |  |  |  |  |  |  | 
2 | CC[C@H](C)[C@H](NC(=O)[C@H](CO)NC(=O)[C@H](Cc1ccc(O)cc1)NC(=O)[C@H](CC(=O)O)NC(=O)[C@H](CO)NC(=O)[C@@H](NC(=O)[C@H](Cc1ccccc1)NC(=O)[C@@H](NC(=O)CNC(=O)[C@H](CCC(=O)O)NC(=O)[C@H](C)NC(=O)[C@@H](N)Cc1ccc(O)cc1)[C@@H](C)O)[C@@H](C)CC)C(=O)N[C@@H](C)C(=O)N[C@@H](CCSC)C(=O)N[C@@H](CC(=O)O)C(=O)N[C@@H](CCCCN)C(=O)N[C@H](C(=O)N[C@@H](Cc1c[nH]cn1)C(=O)N[C@@H](CCC(N)=O)C(=O)N[C@@H](CCC(N)=O)C(=O)N[C@@H](CC(=O)O)C(=O)N[C@@H](Cc1ccccc1)C(=O)N[C@H](C(=O)N[C@@H](CC(N)=O)C(=O)N[C@@H](Cc1c[nH]c2ccccc12)C(=O)N[C@@H](CC(C)C)C(=O)N[C@@H](CC(C)C)C(=O)N[C@@H](C)C(=O)N[C@@H](CCC(N)=O)C(=O)N[C@@H](CCCCN)C(=O)NCC(=O)N[C@@H](CCCCN)C(=O)N[C@@H](CCCCN)C(=O)N[C@@H](CC(N)=O)C(=O)N[C@@H](CC(=O)O)C(=O)N[C@@H](Cc1c[nH]c2ccccc12)C(=O)N[C@@H](CCCCN)C(=O)N[C@@H](Cc1c[nH]cn1)C(=O)N[C@@H](CC(N)=O)C(=O)N[C@H](C(=O)N[C@H](C(=O)N[C@@H](CCC(N)=O)C(=O)O)[C@@H](C)O)[C@@H](C)CC)C(C)C)[C@@H](C)CC [GIP, glucose-dependent insulinotropic polypeptide] |  | not seen | statistically significant differences | over 400 | effectively mitigated TBI injury | improved locomotor behavior to a level similar to the naïve group | significantly higher | trended to improve this deficit
